Experimental findings from ChEMBL document CHEMBL1201862, “PubChem BioAssay data set” (2004) are described below.

One assay relates to Escherichia coli. The assay can be described thus: microbe, parasite or virus in culture.
The target in assay [1] is Dual specificity tyrosine-phosphorylation-regulated kinase 1A (Rattus norvegicus, UniProt Q63470). The format is biochemical, Homo sapiens.
A short description of assay [2]: cells. The format is functional, cell-based.
A short description of assay [3]: cells. The class given is functional, cell-based. This is another data set of the same source.
For another assay, the target named is T1, Cytochrome P450 1A2 (Homo sapiens, UniProt P05177).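 Also: PubChem cytochrome P450 panel assay, CYP1A2 panel member.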
T1 sequence (P05177 whole entry): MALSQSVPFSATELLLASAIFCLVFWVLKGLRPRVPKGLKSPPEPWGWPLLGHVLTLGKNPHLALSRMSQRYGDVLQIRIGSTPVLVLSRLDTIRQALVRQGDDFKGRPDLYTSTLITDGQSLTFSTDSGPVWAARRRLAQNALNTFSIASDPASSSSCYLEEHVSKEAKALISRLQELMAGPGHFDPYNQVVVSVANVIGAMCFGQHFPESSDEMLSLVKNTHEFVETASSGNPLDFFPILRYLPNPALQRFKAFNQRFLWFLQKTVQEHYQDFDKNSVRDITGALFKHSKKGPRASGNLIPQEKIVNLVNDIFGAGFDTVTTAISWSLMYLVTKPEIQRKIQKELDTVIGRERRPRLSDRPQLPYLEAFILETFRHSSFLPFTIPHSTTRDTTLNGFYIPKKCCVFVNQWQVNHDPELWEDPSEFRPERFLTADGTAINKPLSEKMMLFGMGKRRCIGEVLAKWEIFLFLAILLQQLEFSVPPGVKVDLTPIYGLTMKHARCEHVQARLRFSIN

For assay [4], the target named is Voltage-gated inwardly rectifying potassium channel KCNH2 (Homo sapiens, UniProt Q12809). The settings on record: Potency.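 Also: confirmatory quantitative high-throughput screen measuring inhibition of hERG channel activity.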
The next assay has as its target Cytochrome P450 2D6 (Homo sapiens, UniProt P10635).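 Also: CYP2D6 member of a cytochrome P450 panel assay.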
Assay [5] can be described thus: cytotoxicity in HEK-293T cells, dose response, cytotoxicity control for TCR NF-kB inhibitor project, luminescence, T-cell screen hits (AID 489026).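 Also: cells exposed to compound about 14 hours before the viability readout.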 The format is functional, cell-based.
Assay [6] concerns the target T2, Cytochrome P450 3A4 (Homo sapiens, UniProt P08684).
Another assay deals with Cytochrome P450 2C9 (Homo sapiens, UniProt P11712).
Assay [7] concerns the target T2, Cytochrome P450 3A4. Conditions: Potency.
For a further assay, the target named is Mu-type opioid receptor (Homo sapiens, UniProt P35372). The assay can be described thus: Counterscreen for agonists of heterodimerization of the mu 1 (OPRM1) and delta 1 (OPRD1) opioid receptors: Luminescence-based cell-based high throughput dose response assay to identify agonists of OPRM1 homodimerization. The class given is functional. Background: The purpose of a counterscreen is to sort out artefacts and off-target activity.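 Also: U2OS cells expressing OPRM1 and beta-arrestin as split beta-galactosidase partners.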

In assay [8] the target is T3, Short transient receptor potential channel 4 (Mus musculus, UniProt Q9QUQ5).
T3 sequence (Q9QUQ5 whole entry): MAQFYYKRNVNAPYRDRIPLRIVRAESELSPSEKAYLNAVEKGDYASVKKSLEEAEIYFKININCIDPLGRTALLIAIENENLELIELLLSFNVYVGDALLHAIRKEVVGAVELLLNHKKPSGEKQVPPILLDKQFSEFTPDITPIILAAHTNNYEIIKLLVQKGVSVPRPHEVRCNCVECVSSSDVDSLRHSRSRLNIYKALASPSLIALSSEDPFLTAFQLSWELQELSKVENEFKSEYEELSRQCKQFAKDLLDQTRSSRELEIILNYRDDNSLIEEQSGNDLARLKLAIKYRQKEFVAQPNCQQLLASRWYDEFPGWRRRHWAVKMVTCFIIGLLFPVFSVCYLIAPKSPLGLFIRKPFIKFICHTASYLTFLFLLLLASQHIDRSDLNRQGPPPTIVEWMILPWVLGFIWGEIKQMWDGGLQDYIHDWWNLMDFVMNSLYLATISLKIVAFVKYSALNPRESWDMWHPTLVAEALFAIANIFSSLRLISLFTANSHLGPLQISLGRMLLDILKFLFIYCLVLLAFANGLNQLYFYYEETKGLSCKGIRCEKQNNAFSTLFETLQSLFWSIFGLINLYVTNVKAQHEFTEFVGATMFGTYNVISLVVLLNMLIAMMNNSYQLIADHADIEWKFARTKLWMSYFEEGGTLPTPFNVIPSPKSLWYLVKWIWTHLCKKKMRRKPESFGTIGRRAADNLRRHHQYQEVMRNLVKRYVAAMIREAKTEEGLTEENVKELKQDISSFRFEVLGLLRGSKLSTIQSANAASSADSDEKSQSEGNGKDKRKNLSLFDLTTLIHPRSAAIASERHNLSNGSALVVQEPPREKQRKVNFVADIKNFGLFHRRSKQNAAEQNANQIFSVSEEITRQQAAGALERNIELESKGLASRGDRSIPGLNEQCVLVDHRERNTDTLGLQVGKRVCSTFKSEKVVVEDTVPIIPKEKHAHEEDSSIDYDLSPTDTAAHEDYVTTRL
The assay can be described thus: mouse TRPC4 channel activators, dose response, cell-based, HEK293 TRPC4/mu-opioid, Fluo-4 calcium (AID 434937). The format is functional.

Assay [9] addresses 5-hydroxytryptamine receptor 5A (Homo sapiens, UniProt P47898). The assay can be described thus: Counterscreen for agonists of OPRM1-OPRD1 heterodimerization: luminescence-based cell-based high throughput dose response assay to identify agonists of 5-hydroxytryptamine (serotonin) 5A receptor (HTR5A). [Related pubchem assays (depositor defined):AID504326, AID504355, AID504692, AID504904, AID504905]. The format is functional.

The target of assay [10] is Delta-type opioid receptor (Homo sapiens, UniProt P41143). The assay can be described thus: Counterscreen for agonists of heterodimerization of the mu 1 (OPRM1) and delta 1 (OPRD1) opioid receptors: Luminescence-based cell-based high throughput dose response assay to identify agonists of OPRD1 homodimerization. [Related pubchem assays (depositor defined):AID504326, AID504355, AID504692, AID504904, AID504905]. The class given is functional.

Another assay has as its system HeLa. The assay can be described thus: HeLa cell cytotoxicity, dose response, cytotoxicity control for MITF activator project, CellTiter-Glo luminescence, cherry-pick samples (AID 540259). The class given is functional, cell-based. Conditions: Homo sapiens. For orientation: ATP-based viability assays read luminescence as a measure of living cells.
Another assay addresses T4, Cysteine protease ATG4B (Homo sapiens, UniProt Q9Y4P1).
T4 sequence (Q9Y4P1 whole entry): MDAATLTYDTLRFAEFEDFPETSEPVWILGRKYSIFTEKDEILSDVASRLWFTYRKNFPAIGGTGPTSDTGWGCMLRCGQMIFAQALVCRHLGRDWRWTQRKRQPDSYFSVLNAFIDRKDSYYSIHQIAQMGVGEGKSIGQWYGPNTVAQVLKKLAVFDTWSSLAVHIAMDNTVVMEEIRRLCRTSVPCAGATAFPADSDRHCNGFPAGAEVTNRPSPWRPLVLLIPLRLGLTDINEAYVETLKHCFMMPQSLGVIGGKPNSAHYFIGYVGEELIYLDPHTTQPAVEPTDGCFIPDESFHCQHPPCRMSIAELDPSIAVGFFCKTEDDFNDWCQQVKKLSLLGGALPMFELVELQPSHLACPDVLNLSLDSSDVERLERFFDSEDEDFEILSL
The format is functional.

In a further assay the target is Phospholipase A2 (Homo sapiens, UniProt P04054). The format is functional.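 Also: confirmatory dose-response counterscreen on phospholipase A2, testing hits that came from an ultra-high-throughput screen for ATG4B inhibitors.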
Assay [11] is described as follows: cytotoxicity toward NIH3T3 fibroblasts, dose response, counter-screen, cell-based, ATP luminescence, mouse fibroblasts (AID 2010).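 Also: cells exposed to compound for about 90 hours before reading.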 The format is functional.
In another assay the target is Large T antigen (Simian virus 40, UniProt P03070). The class given is functional, Betapolyomavirus macacae.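 Also: Confirmatory-stage PubChem screen for compounds that inhibit SV40 T antigen.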
Assay [12] is described as follows: inhibitors of intracellular T. cruzi replication, confirmation, NIH3T3 host cells, beta-gal luminescence (AID 2044).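 Also: intracellular parasites grown in NIH/3T3 mouse fibroblasts as host cells; luminescent beta-galactosidase reporter signal from transgenic T. cruzi replicating inside host cells; inhibitors lower the luminescence signal.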 The format is functional, cell-based.

The structures appear in SMILES notation. Calls of active or inactive are those of the source.

Voltage-gated inwardly rectifying potassium channel KCNH2, sequence (Q12809 whole entry): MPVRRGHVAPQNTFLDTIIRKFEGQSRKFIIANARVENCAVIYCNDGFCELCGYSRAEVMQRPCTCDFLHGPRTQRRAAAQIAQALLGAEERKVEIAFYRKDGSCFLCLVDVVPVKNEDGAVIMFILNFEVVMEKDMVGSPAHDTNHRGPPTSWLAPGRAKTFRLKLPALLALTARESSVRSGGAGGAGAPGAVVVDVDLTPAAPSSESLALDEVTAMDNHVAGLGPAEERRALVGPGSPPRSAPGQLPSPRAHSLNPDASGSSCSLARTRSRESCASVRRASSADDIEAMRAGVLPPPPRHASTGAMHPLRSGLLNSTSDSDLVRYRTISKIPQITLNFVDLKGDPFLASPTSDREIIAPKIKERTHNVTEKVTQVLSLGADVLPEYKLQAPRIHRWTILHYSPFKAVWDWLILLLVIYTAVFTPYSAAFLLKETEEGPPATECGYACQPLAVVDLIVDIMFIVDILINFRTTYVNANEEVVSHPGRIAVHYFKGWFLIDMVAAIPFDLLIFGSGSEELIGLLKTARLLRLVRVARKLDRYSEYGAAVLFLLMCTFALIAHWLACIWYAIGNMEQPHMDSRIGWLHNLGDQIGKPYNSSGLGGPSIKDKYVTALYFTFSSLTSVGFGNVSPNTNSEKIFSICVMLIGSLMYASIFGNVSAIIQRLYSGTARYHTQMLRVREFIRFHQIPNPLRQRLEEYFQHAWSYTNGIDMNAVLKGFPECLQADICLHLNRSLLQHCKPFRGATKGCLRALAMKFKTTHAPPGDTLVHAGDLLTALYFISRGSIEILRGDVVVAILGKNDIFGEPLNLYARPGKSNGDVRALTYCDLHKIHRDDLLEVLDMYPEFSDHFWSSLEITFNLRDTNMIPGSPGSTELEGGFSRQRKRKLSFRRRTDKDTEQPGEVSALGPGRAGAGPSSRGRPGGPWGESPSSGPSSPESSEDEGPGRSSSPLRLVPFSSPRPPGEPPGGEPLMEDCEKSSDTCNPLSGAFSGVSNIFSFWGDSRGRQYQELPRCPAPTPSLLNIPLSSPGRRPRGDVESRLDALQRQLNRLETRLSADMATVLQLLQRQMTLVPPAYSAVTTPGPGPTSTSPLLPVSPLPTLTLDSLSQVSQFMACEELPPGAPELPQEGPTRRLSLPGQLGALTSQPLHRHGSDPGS
Delta-type opioid receptor, sequence (P41143 whole entry): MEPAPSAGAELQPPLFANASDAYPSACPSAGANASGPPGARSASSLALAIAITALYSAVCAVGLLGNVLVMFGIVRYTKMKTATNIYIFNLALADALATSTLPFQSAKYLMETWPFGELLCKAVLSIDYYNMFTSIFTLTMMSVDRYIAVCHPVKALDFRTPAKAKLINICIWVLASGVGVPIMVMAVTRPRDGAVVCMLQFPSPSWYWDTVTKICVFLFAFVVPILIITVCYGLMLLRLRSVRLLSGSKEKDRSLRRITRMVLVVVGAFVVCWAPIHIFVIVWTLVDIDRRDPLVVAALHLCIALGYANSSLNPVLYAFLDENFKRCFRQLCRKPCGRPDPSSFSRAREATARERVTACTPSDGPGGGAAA
Mu-type opioid receptor, sequence (P35372 whole entry): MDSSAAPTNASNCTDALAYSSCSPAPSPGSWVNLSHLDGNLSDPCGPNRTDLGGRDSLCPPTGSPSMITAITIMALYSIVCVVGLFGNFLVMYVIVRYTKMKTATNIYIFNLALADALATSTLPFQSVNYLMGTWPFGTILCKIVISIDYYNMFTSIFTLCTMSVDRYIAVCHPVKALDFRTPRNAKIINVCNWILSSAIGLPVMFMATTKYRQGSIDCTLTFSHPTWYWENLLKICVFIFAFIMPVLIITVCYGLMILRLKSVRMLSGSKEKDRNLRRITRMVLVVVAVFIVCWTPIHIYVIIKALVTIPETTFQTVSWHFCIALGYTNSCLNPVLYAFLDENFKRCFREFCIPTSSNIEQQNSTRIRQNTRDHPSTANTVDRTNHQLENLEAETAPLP
T2 sequence (P08684 whole entry): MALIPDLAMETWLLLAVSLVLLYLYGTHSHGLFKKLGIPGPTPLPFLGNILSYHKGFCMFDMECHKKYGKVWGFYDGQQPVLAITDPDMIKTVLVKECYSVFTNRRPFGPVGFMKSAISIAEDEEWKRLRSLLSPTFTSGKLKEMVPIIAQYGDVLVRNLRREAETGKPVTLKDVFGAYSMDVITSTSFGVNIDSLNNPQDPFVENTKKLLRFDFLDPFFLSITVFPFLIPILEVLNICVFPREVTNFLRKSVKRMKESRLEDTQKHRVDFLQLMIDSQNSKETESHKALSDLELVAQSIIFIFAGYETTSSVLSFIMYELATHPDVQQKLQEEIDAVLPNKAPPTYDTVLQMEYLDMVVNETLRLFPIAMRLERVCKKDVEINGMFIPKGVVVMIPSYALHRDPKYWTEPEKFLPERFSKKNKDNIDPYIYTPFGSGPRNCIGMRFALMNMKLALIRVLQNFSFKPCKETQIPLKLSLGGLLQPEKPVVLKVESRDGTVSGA
Phospholipase A2, sequence (P04054 whole entry): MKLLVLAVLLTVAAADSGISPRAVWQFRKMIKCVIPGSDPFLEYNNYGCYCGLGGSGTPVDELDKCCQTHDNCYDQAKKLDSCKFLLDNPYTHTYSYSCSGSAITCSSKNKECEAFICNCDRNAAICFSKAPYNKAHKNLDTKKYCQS
5-hydroxytryptamine receptor 5A, sequence (P47898 whole entry): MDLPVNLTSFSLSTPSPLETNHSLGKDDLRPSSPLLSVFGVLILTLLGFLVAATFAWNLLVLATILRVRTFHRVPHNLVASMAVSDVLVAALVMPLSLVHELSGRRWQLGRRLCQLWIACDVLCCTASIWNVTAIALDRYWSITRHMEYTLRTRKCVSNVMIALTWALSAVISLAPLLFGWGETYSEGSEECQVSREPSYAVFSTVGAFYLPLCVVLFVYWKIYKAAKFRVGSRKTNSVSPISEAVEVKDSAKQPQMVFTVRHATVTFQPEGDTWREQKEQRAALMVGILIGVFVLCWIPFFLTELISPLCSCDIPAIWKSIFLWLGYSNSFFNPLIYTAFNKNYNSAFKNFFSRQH
Cytochrome P450 2D6, sequence (P10635 whole entry): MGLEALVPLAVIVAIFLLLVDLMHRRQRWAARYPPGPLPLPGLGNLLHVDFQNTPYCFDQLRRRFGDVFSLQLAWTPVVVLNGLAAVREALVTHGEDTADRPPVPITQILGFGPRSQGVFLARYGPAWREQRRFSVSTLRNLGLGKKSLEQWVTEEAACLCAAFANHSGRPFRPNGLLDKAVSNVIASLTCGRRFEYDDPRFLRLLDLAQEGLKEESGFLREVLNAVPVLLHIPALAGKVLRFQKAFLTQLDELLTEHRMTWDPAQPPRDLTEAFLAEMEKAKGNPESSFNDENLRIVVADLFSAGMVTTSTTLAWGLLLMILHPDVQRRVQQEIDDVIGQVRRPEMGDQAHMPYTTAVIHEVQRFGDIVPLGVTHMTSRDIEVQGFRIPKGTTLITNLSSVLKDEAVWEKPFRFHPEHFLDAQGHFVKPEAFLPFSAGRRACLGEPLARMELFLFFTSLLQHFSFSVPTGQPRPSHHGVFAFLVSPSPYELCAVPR
Cytochrome P450 2C9, sequence (P11712 whole entry): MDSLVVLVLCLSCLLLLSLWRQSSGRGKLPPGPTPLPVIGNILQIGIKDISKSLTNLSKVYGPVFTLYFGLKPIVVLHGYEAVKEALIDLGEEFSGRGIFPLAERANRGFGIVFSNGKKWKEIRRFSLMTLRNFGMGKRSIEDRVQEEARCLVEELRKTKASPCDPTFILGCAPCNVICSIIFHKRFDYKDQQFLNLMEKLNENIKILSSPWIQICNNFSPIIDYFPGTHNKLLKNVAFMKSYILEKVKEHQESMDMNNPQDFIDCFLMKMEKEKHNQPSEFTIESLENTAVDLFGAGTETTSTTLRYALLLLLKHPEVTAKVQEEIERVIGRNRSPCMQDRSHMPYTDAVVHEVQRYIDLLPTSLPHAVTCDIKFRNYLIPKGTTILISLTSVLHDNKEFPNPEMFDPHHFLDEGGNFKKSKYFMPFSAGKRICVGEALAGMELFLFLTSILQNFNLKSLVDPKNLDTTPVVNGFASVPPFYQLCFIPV
Large T antigen, sequence (P03070 whole entry): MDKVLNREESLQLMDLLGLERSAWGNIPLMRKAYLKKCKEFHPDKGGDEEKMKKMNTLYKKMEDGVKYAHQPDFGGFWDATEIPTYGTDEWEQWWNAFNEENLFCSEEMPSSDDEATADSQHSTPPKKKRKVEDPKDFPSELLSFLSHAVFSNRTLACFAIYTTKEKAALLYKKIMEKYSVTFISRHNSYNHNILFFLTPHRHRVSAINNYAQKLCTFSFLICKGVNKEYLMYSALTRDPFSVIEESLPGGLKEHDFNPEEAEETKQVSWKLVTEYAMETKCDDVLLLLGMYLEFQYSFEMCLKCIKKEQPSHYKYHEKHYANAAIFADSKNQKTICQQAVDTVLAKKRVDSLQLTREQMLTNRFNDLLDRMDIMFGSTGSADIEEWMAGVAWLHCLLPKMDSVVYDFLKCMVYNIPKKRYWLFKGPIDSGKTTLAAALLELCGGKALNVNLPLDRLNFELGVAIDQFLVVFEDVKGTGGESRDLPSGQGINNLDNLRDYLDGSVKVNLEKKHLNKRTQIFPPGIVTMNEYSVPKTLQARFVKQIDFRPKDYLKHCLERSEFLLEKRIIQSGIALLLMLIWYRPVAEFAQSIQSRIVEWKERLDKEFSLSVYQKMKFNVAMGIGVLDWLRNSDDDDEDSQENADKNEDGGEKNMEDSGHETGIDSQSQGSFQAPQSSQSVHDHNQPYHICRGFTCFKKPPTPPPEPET

Usually AC50 stands for the midpoint of the concentration-response curve, whichever way the signal moves. For the molecule `CCOc1ccc(Nc2nc(O)c3c(n2)CCCC3)cc1`, the AC50 in the assay on Escherichia coli is 31.7 µM (active). Same read-out and setting: the value for `COC(=O)c1ccc(CNC(=O)C2CCC(=O)N(Cc3ccccn3)C2)cc1` (centres undefined) was 131 µM (active). `Oc1ccc(/C=N/n2c(S)nnc2COc2ccccc2)c(O)c1`: the concentration at half-maximal activity (AC50) in [1] is 0.796 µM (active). As usually defined, the EC50 is the concentration that produces a half-maximal response. As to `COc1ccc2[nH]c(C(=O)N/N=C/c3ccccc3OC)cc2c1`, the EC50 in “cells [2]” and in the assay “cells [3]” was > 350 µM (not active) each time. Besides, the AC50 in [1] is 2.17 µM (active). Regarding `Cc1ccc(OCCNC(=O)c2cc(-n3cnnc3)ccc2Cl)cc1C`, the AC50 is 28.2 µM (inconclusive) at Cytochrome P450 1A2 and 51 µM (active) in the assay on Escherichia coli. `CCCN(CCC)[C@@H]1CCc2cccc(O)c2C1`: in [4], the half-maximal activity concentration (AC50) was 15.8 µM (inconclusive). Consider `COc1cc2c3c(c1OC)Oc1ccc(cc1)C[C@H]1c4c(cc(OC)c(OC)c4Oc4ccc(cc4)C[C@@H]3N(C)CC2)CCN1C`, for which the AC50 in the assay with Escherichia coli was 25.2 µM (active). As a reminder, the IC50 is the concentration that inhibits the measured activity by half. Regarding `O=C(N[C@@H](Cc1ccccc1)C(=O)CCl)OCc1ccccc1`, the concentration at half-maximal activity (AC50) on Cytochrome P450 2D6 is 39.8 µM (inconclusive); in assay [4], 25.1 µM (inconclusive); at Cytochrome P450 3A4 [6], 1.26 µM (inconclusive); at Cytochrome P450 2C9, 12.6 µM (inconclusive). The IC50 in assay [5] was > 80 µM (inactive). `CCCCOCCOP(=O)(OCCOCCCC)OCCOCCCC`: the results for the concentration at half-maximal activity (AC50) (in assay [4]; at Cytochrome P450 3A4 [7]) were 50.1 µM (inconclusive) and 25.1 µM (inconclusive), respectively. As for `O=C(c1sc2ccccc2c1Cl)N(Cc1ccco1)C1CCS(=O)(=O)C1` (centres undefined), the EC50 on Mu-type opioid receptor is > 92.5 µM (inactive); in [8], 2.11 µM (active); in assay [9], > 92.5 µM (inactive); in [10], 29.2 µM (inactive). `O=C(Nc1ccc2c(c1)CCC2)c1c(F)cccc1Cl`: the AC50 with HeLa is > 350 µM (inactive). Consider `COc1ccc(C(CNc2ncnc3sc(C)c(C)c23)N(C)C)cc1` (centres undefined), for which the EC50 at Mu-type opioid receptor was > 92.4 µM (inactive); in assay [8], 0.473 µM (active); in assay [9], > 92.4 µM (inactive); in [10] it was 70.5 µM (inactive).

Turning to `Cc1cccc2c1N(CCOc1ccc(C(C)(C)C)cc1)C(=O)C2=O`, the half-inhibitory concentration (IC50) on Cysteine protease ATG4B is 5.76 µM (active); at Phospholipase A2, 4.75 µM (active). As to `COc1ccccc1C(=O)Nc1ccc2c(C)cc(=O)oc2c1`, the concentration at half-maximal activity (AC50) in the assay with HeLa is 51.7 µM (active).

Consider `CCn1c(/C=C/c2c[nH]c3ccccc23)nc2ccccc2c1=O`, for which the AC50 with HeLa was 50.7 µM (active). The same measure, in the same setting: next, `O=C(Nc1ccc(O)cc1)c1c(O)nc2c(c1O)CCCC2`: 76 µM (active).

For `CC(C)(C)c1ccc(OCC2CO2)cc1` (centres undefined), the concentration at half-maximal activity (AC50) in assay [4] was 12.6 µM (inconclusive). On the same count and under the same terms, the value for `O=C(O)C1C2CCC(O2)C1C(=O)O` (centres undefined) was 1.26 µM (inconclusive).

Consider `c1ccc(-c2ccc(-c3cnc4n3CCCCC4)cc2)cc1`, for which, in the assay on HeLa, the AC50 is 37.5 µM (active). Take `COC(=O)C1CCc2c(ccc3c2CCCC3)C1=O` (centres undefined): in the assay with HeLa, the AC50 was > 350 µM (inactive). Take `Cc1noc(C)c1COC(=O)c1cccc(S(=O)(=O)N2CCOCC2)c1`: the AC50 with Escherichia coli is 44.7 µM (active). Consider `ClC(Cl)(Cl)C(Cl)(Cl)Cl` [HEXACHLOROETHANE], for which, in assay [4], the concentration at half-maximal activity (AC50) was 39.8 µM (inconclusive). Consider `Cc1cccc(N=C(S)Nc2ccc(Oc3ccccc3)cc2)n1`, for which the IC50 is 22.5 µM (inactive) on Cysteine protease ATG4B and 16.8 µM (active) at Phospholipase A2.

For `Cc1ccc(/N=c2\oc3cc(O)ccc3cc2C(N)=O)cc1`, in [1], the AC50 was 0.074 µM (active). Also, the EC50 in [11] was > 60 µM (not active); in assay [12], 3.69 µM (active). On Large T antigen, the IC50 is 33.8 µM (active). Regarding `O=C(COC(=O)/C=C/c1ccc(F)cc1)Nc1nnc(-c2ccccc2)o1`, in the assay on Escherichia coli, the concentration at half-maximal activity (AC50) is 23.2 µM (active).
